From ChEMBL document CHEMBL1201862, “PubChem BioAssay data set” (2004)
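Cultured in 96-well plates, cells were exposed to test compound for 48 hours across five concentrations. GI50 marks 50% less growth.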 Active and inactive are the calls of the source. Cut-off read from the data, not from the text of the source: active = GI50 up to about 1.1 µM and inactive = higher.

Columns and labels:
Experiment in all cases: inhibition of tumour cell growth, NCI panel, 48 h
SW-620 = test system: SW-620
MDA-MB-231 = test system: MDA-MB-231
PC-3 = test system: PC-3
ACHN = test system: ACHN
LOX IMVI = test system: LOX IMVI
HOP-92 = test system: HOP-92
SNB-75 = test system: SNB-75
SK-OV-3 = test system: SK-OV-3
K562 = test system: K562
SK-MEL-28 = test system: SK-MEL-28
RXF 393 = test system: RXF 393
MOLT-4 = test system: MOLT-4
KM12 = test system: KM12
M14 = test system: M14
MDA-MB-435 = test system: MDA-MB-435
EKVX = test system: EKVX
DU-145 = test system: DU-145
SR = test system: SR

Measured: GI50

O=C(CCCN1CCC2(CC1)CC(c1ccccc1)OC2=O)c1ccc(F)cc1 (configuration not stated)
inactive: SW-620 40.1 µM | MDA-MB-231 84.5 µM | PC-3 40.2 µM | ACHN 54.6 µM | LOX IMVI 19.6 µM | HOP-92 26.9 µM | SNB-75 16.7 µM | SK-OV-3 > 100 µM | K562 29.5 µM | SK-MEL-28 39.4 µM | RXF 393 66.2 µM | MOLT-4 28.3 µM | KM12 35 µM | M14 15.8 µM | MDA-MB-435 41.3 µM | EKVX > 100 µM | DU-145 64.9 µM | SR 19.6 µM

O/N=C1/CC2(N3CCOCC3)C3CC/C(=N\O)C2CC1(Cc1ccccc1)C3 (configuration not stated)
inactive: SW-620 > 100 µM | MDA-MB-231 > 100 µM | PC-3 > 100 µM | ACHN > 100 µM | LOX IMVI > 100 µM | SNB-75 36.1 µM | SK-OV-3 > 100 µM | K562 74 µM | SK-MEL-28 > 100 µM | RXF 393 18.3 µM | MOLT-4 > 100 µM | KM12 > 100 µM | M14 > 100 µM | MDA-MB-435 > 100 µM | EKVX > 100 µM | DU-145 > 100 µM | SR > 100 µM

C[C@H]1C[C@H]2[C@@H]3CCC4=CC(=O)C=C[C@]4(C)C3=CC[C@]2(C)[C@@]1(O)C(=O)CO
inactive: MDA-MB-231 > 100 µM | PC-3 99.5 µM | ACHN > 100 µM | LOX IMVI > 100 µM | HOP-92 > 100 µM | SNB-75 > 100 µM | SK-OV-3 > 100 µM | K562 > 100 µM | SK-MEL-28 > 100 µM | RXF 393 > 100 µM | MOLT-4 64 µM | KM12 > 100 µM | M14 > 100 µM | MDA-MB-435 > 100 µM | EKVX 50.6 µM | DU-145 > 100 µM | SR 37.7 µM

COC(=O)[C@@H]1CN(C(=O)c2ccccc2)C(=O)N1
inactive: SW-620 > 100 µM | MDA-MB-231 > 100 µM | PC-3 > 100 µM | ACHN > 100 µM | LOX IMVI > 100 µM | HOP-92 > 100 µM | SNB-75 > 100 µM | K562 > 100 µM | SK-MEL-28 > 100 µM | RXF 393 > 100 µM | MOLT-4 > 100 µM | KM12 > 100 µM | M14 > 100 µM | MDA-MB-435 > 100 µM | EKVX > 100 µM | DU-145 > 100 µM | SR > 100 µM

O=C1CC(c2ccc(Cl)cc2)Oc2ccccc21 (configuration not stated)
inactive: SW-620 25.7 µM | MDA-MB-231 28.2 µM | PC-3 20.2 µM | ACHN 36.1 µM | LOX IMVI 29.8 µM | HOP-92 24.7 µM | SNB-75 13.6 µM | SK-OV-3 19.4 µM | K562 4.86 µM | SK-MEL-28 85.9 µM | KM12 12.9 µM | M14 17.1 µM | MDA-MB-435 36.8 µM | EKVX 18.6 µM | DU-145 69 µM | SR 8.36 µM

Nc1ncc(Cc2ccc3c(c2)OCO3)c(N)n1
inactive: SW-620 > 100 µM | MDA-MB-231 > 100 µM | PC-3 > 100 µM | ACHN > 100 µM | LOX IMVI > 100 µM | HOP-92 53.5 µM | SK-OV-3 > 100 µM | K562 > 100 µM | SK-MEL-28 > 100 µM | RXF 393 > 100 µM | MOLT-4 > 100 µM | KM12 > 100 µM | M14 > 100 µM | MDA-MB-435 > 100 µM | EKVX > 100 µM | DU-145 > 100 µM | SR > 100 µM
